The term inhibition denotes the drop in the measured response relative to a control, in per cent.

The source of these data is PMC8037569, “Neuroprotective Effect of Aurantio-Obtusin, a Putative Vasopressin V1A Receptor Antagonist, on Transient Forebrain Ischemia Mice Model” (International Journal of Molecular Sciences, 2021).

Series [1] relates to C57BL/6 mice. The series is described as follows: Passive avoidance test after transient forebrain ischemia (BCCAO). It counts as in vivo, mouse. The conditions noted are these: 10 mg/kg, p.o., once daily, 1 h to 7 days after BCCAO; for Latency time in test trial of passive avoidance test: vs BCCAO group, p < 0.05. As for the experimental part:
(§1) Male C57BL/6 mice (22–26 g, 7 weeks) were purchased from the Orient Co. Ltd., a branch of Charles River Laboratories (Seoul, Korea), and kept in the University Animal Care Unit for 1 week prior to the experiments. The animals were housed five per cage, allowed access to water and food ad libitum; the environment was maintained at a constant temperature (23 ± 1 °C) and humidity (60 ± 10%) under a 12-h light/dark cycle (the lights were on from 07:30 to 19:30 h). Forty mice were divided equally into four groups (sham + vehicle, n = 10; sham + drug, n = 10; bilateral common carotid artery occluded ischemia + vehicle, n = 10; bilateral common carotid artery occluded ischemia + drug, n = 10) for experiment. The treatment and maintenance of the animals were carried out in accordance with the Animal Care and Use Guidelines of Dong-A University, Korea. All in vivo experiments were performed according to the protocols approved by the Institutional Animal Care and Use Committee of Dong-A University (approved protocol numbers: DIACUC-approved-17-20) and were in accordance with the National Institutes of Health guidelines.
C57BL/6 mice were anesthetized with 2.0% isoflurane and 70% nitrous oxide in oxygen and subjected to transient forebrain ischemia. The transient forebrain ischemia was induced by bilateral common carotid artery occlusion (BCCAO) with aneurysm clips for 20 min, and the circulation was restored by removing the clips. Mice that received the same surgical operation without carotid artery clipping served as sham-operated controls. During the surgical procedure, the rectal temperature was maintained at 37 ± 0.5 °C with a heating pad (Biomed S.L., Barcelona, Spain). The regional cerebral blood flow (rCBF) was monitored using laser Doppler flowmetry (Perimed, PF5010, JarFalla, Sweden). […]
Passive avoidance test was conducted 1 h after the last drug administration. […] For the retention trial, the mouse was again placed in the light compartment and the time required to enter the dark compartment was recorded.

For series [2], the system named is angiotensin-converting enzyme (ACE). The arrangement: method as in PMID 18803227. Conditions: cited from earlier work.
Series [3] relates to C57BL/6 mice. The series is described as follows: Transient forebrain ischemia (BCCAO) mice model, overall effect and tolerability. It counts as in vivo. On the procedure: as §1, with “[…].” for “Male C57BL/6 mice (22–26 g, 7 weeks) were purchased from the Orient Co. Ltd., a branch of Charles River Laboratories (Seoul, Korea), and kept in the University Animal Care Unit for 1 week prior to the experiments.”
C57BL/6 mice were anesthetized with 2.0% isoflurane and 70% nitrous oxide in oxygen and subjected to transient forebrain ischemia. The transient forebrain ischemia was induced by bilateral common carotid artery occlusion (BCCAO) with aneurysm clips for 20 min, and the circulation was restored by removing the clips. […] The regional cerebral blood flow (rCBF) was monitored using laser Doppler flowmetry (Perimed, PF5010, JarFalla, Sweden). […]

Series [4] has as its target T1, hD3 receptor (Homo sapiens, UniProt P35462).
T1 construct: host or cells: CHO
Description: GPCR functional assay: cAMP modulation by HTRF in transfected CHO cells. It counts as cell-based. Conditions: 100 µM test compound. On the technique in general: Time-resolved FRET reads energy transfer from a long-lived donor to a nearby acceptor.

Series [5] addresses T2, hNK1R (Homo sapiens, UniProt P25103).
T2 construct: Human endogenous (U373MG cells); host or cells: U373MG
The series is described as follows: GPCR functional assay: intracellular Ca2+ mobilization in U373MG cells. It counts as cell-based.

For series [6], the system named is rat. More on the design: method as in PMID 31547563. The conditions noted are these: cited from earlier work.

Each structure is given as a SMILES string. “Also recorded” adds a separate entry of the source. Some results are limits rather than exact numbers.

T1 sequence (P35462 whole entry): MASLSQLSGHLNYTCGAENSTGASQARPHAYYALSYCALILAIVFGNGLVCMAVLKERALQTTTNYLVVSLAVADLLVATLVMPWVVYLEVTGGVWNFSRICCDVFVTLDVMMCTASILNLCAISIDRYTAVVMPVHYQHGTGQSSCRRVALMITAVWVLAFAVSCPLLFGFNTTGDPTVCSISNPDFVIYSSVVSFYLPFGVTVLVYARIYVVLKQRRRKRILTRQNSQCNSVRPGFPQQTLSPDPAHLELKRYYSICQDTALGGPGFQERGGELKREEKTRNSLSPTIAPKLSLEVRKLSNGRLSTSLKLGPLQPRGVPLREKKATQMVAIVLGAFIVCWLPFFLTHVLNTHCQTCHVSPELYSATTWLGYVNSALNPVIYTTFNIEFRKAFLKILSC
T2 sequence (P25103 whole entry): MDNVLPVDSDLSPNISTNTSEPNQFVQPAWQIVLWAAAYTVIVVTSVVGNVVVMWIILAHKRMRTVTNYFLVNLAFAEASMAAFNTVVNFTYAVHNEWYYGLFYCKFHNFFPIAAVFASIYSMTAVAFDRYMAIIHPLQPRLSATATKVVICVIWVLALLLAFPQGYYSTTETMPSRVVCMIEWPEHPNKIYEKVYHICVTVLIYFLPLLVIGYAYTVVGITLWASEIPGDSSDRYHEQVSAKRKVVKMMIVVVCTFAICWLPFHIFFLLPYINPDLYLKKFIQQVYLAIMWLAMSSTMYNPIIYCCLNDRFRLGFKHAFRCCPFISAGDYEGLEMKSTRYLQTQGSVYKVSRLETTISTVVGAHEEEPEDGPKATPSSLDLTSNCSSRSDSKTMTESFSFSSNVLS

As for `COc1c(O)cc2c(c1O)C(=O)c1c(cc(C)c(O)c1OC)C2=O` [Aurantio-obtusin, 1,3,7-trihydroxy-2,8-dimethoxy-6-methylanthracene-9,10-dione], in series [1] (n = 8/group), the “Latency time in training trial of passive avoidance test” value was “no significant differences”. Also, the “Latency time in test trial of passive avoidance test” value is “significantly attenuated the reduction of latency time” in series [1] and “attenuated the latency time; also recorded: attenuated that reduction significantly” in series [1] (listed as aurantio-obtusin). In addition, in series [2], the “Inhibition of ACE activity” value is “no activity”. The “Toxicity of treatment alone (sham + drug)” value in series [3] (10 mg/kg, p.o., once daily, compared to sham group) is “no toxicity”. Also, in series [3] (1, 5 and 10 mg/kg tested, result for 10 mg/kg), the “Effect in BCCAO model, pilot study” value is listed as “effective”. In addition, in series [4] (control response to 300 nM dopamine), the “% Stimulation (agonist effect) of control agonist response, D3 (h)” value is reported as 33.00 ± 1.84%. The inhibition at 100 µM in series [4] (CHO, agonist response of 10 nM dopamine, read-out: % Inhibition (antagonist effect) of control agonist response, D3 (h) (converted)) was -2.3%; in series [5] (U373 MG, read-out: % Inhibition (antagonist effect) of control agonist response, NK1 (h) (converted)), 47.6%. In addition, in series [5] (100 µM test compound, control response to 30 nM [Sar9, Met(O2)11]-SP), the “% Stimulation (agonist effect) of control agonist response, NK1 (h)” value is −6.40 ± 0.00%. The Dose causing hepatoxicity in series [6] is given as above 40 mg/kg.
